# Columns and labels:
# [1] = molecular target: T1, human E3 ubiquitin-protein ligase RNF31 (HOIP) (Homo sapiens, UniProt Q96EP0); test: Cell-free HTRF-based HOIP inhibition assay; assay type: biochemical
# T1 sequence (Q96EP0 695-1072 limits assumed): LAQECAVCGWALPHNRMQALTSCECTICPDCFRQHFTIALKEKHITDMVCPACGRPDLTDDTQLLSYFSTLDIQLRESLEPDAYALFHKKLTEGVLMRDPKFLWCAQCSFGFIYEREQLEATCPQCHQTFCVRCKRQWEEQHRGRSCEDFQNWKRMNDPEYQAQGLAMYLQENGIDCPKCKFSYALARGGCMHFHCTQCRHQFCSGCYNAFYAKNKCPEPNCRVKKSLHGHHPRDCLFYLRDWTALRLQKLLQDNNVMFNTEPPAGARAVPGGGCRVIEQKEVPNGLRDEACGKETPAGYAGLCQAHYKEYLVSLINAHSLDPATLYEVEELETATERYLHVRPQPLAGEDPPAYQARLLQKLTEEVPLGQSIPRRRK
# Procedure: This assay was performed in the following steps: • a) synthesis of recombinant fragment of human E3 ubiquitin-protein ligase RNF31 (HOIP), expressed with purity >90% in E. coli system (the protein was prepared as 1 mg/mL stock in a standard formulation); • b) incubation of the compounds in a typical concentration range: 100-0.005 μM, at a final DMSO conc. 1% with a mixture of HOIP and ubiquitin activating enzyme E1 at 25° C., for 1 h at 25° C.; • c) followed by addition of a ubiquitination solution including E2 and substrates (the reaction proceeds for 2.5 h at 25° C.); and • d) HTRF detection was performed using a PHERAstar FSX (BMG Labtech) plate reader (excitation at 337 nm, dual emissions at 665 and 620 nm).
# NF-κB signaling pathway = test: Cell-based dual luciferase NF-κB reporter assay (HEK293 cells, TNF stimulated); conditions: Homo sapiens, HEK293
# Procedure: Dual-luciferase reporter assay was designed to find inhibitors of HOIP affecting NF-κB signaling pathway. The assay was performed in HEK293 cells which were transfected with plasmids coding for Firefly and NanoLuc luciferases. The NanoLuc luciferase plasmid contains NF-κB response element which determines its expression.
# The assay was run following standard dual-luciferase protocols. The assay consists of a few steps: • compounds were dispensed at a concentration range: 100-0.005 μM with a final DMSO concentration of 1% of final volume (25 μL); • cells were stimulated after 30 min with 2.5 ng/mL TNF; and • after 6 h Firefly and NanoLuc luciferase activities are determined according to the procedure described by the manufacturer of Nano-Glo Dual-Luciferase Reporter Assay System.
# [2] = tested on: bladder carcinoma RT4 cell line; test: TNF-α-induced cytotoxicity assay (CellTiter-Glo viability); assay type: cell-based; conditions: Homo sapiens, RT-4, 72 h
# Procedure: A viability assay, using bladder carcinoma RT4 cell line, was used for identifying the potential inhibitory effect of tested compounds on HOIP activity. The viability was determined by CellTiter-Glo Luminescent Cell Viability Assay (G7571, Promega) which measures the ability of generating a luminescent signal proportional to the amount of ATP present in living cells. The assay consists of a few steps: • a) the cells were routinely sub cultivated twice a week with standard complete growth medium composition; • b) cells were preparated for the assay by creating a cell suspension at the density of 0.05 mln cells/mL and dispensed into plates (ViewPlate-384, PerkinElmer) resulting in 1000 cells/well; • c) cells were stimulated with 1.25 ng/mL TNFα and with compounds and incubated for 72 h at 37° C. in the atmosphere with 5% CO2; and • d) for detection cytotoxicity was measured with CellTiter-Glo® Luminescent Cell Viability Assay based on the method described by the manufacturer.
IC50 [1],IC50 (NF-κB signaling pathway),Compound,IC50 [2]
≤ 100 nM,≤ 1000 nM,"O=C(NC/C=C/S(=O)(=O)c1ccc(Br)cc1)c1cc2c([nH]c1=O)CCCC2 [Example 5, N-[(2E)-3-(4-bromobenzenesulfonyl)prop-2-en-1-yl]-2-oxo-1,2,5,6,7,8-hexahydroquinoline-3-carboxamide]",≤ 1000 nM
≤ 1000 nM,≤ 10000 nM,"N=S(=O)(/C=C/CNC(=O)c1cc2c([nH]c1=O)CCCC2)c1ccc(F)cc1 (stereo not drawn) [Example 6, N-[(2E)-3-[(4-fluorophenyl)(imino)oxo-λ^6-sulfanyl]prop-2-en-1-yl]-2-oxo-1,2,5,6,7,8-hexahydroquinoline-3-carboxamide]",≤ 1000 nM
≤ 1000 nM,≤ 1000 nM,"O=C(NC/C=C/S(=O)(=O)c1ccccc1)c1cc2c([nH]c1=O)CCCC2 [Example 7, N-[(2E)-3-(benzenesulfonyl)prop-2-en-1-yl]-2-oxo-1,2,5,6,7,8-hexahydroquinoline-3-carboxamide]",≤ 1000 nM
≤ 1000 nM,≤ 10000 nM,"O=C(NC/C=C\S(=O)(=O)c1ccccc1)c1cc2c([nH]c1=O)CCCC2 [Example 9, N-[(2Z)-3-(benzenesulfonyl)prop-2-en-1-yl]-2-oxo-1,2,5,6,7,8-hexahydroquinoline-3-carboxamide]",≤ 10000 nM
≤ 100 nM,≤ 1000 nM,"O=C(NC/C=C/S(=O)(=O)c1ccc(F)cc1)c1cc2c([nH]c1=O)CCCC2 [Example 16, N-[(2E)-3-(4-fluorobenzenesulfonyl)prop-2-en-1-yl]-2-oxo-1,2,5,6,7,8-hexahydroquinoline-3-carboxamide]",≤ 1000 nM
≤ 100 nM,≤ 100 nM,"O=C(NC/C=C/S(=O)(=O)c1ccc(Cl)cc1)c1cc2c([nH]c1=O)CCCC2 [Example 21, N-[(2E)-3-(4-chlorobenzenesulfonyl)prop-2-en-1-yl]-2-oxo-1,2,5,6,7,8-hexahydroquinoline-3-carboxamide]",≤ 1000 nM
≤ 100 nM,≤ 1000 nM,"COc1ccc(S(=N)(=O)/C=C/CNC(=O)c2cc3c([nH]c2=O)CCCC3)cc1F (stereo not drawn) [Example 30, N-[(2E)-3-[(3-fluoro-4-methoxyphenyl)(imino)oxo-λ^6-sulfanyl]prop-2-en-1-yl]-2-oxo-1,2,5,6,7,8-hexahydroquinoline-3-carboxamide]",≤ 1000 nM
,≤ 1000 nM,"CCOc1ccc(S(=N)(=O)/C=C/CNC(=O)c2cc3c([nH]c2=O)CCCC3)cc1 (stereo not drawn) [Example 62, N-[(2E)-3-[(4-ethoxyphenyl)(imino)oxo-λ^6-sulfanyl]prop-2-en-1-yl]-2-oxo-1,2,5,6,7,8-hexahydroquinoline-3-carboxamide]",≤ 1000 nM
,≤ 1000 nM,"CN(C)c1ccc(S(=N)(=O)/C=C/CNC(=O)c2cc3c([nH]c2=O)CCCC3)cc1 (stereo not drawn) [Example 141, N-[(2E)-3-{[4-(dimethylamino)phenyl](imino)oxo-λ^6-sulfanyl}prop-2-en-1-yl]-2-oxo-1,2,5,6,7,8-hexahydroquinoline-3-carboxamide]",≤ 1000 nM

# More lines, now with the values behind:
Compound,IC50 [1],IC50 (NF-κB signaling pathway),IC50 [2]
"O=C(NC/C=C/S(=O)(=O)c1ccccc1)c1cc2c([nH]c1=O)CCN(Cc1ccccc1)C2 [Example 8, N-[(2E)-3-(benzenesulfonyl)prop-2-en-1-yl]-6-benzyl-2-oxo-1,2,5,6,7,8-hexahydro-1,6-naphthyridine-3-carboxamide]",≤ 1000 nM,≤ 1000 nM,≤ 1000 nM
"CC(C)(C)OC(=O)N1CCc2[nH]c(=O)c(C(=O)NC/C=C/S(=O)(=O)c3ccccc3)cc2C1 [Example 10, tert-butyl 3-{[(2E)-3-(benzenesulfonyl)prop-2-en-1-yl]carbamoyl}-2-oxo-1,2,5,6,7,8-hexahydro-1,6-naphthyridine-6-carboxylate]",≤ 100 nM,≤ 1000 nM,≤ 10000 nM
"O=C(NC/C=C/S(=O)(=O)c1ccc(Cl)cn1)c1cc2c([nH]c1=O)CCCC2 [Example 11, N-[(2E)-3-[(5-chloropyridin-2-yl)sulfonyl]prop-2-en-1-yl]-2-oxo-1,2,5,6,7,8-hexahydroquinoline-3-carboxamide]",≤ 100 nM,≤ 1000 nM,≤ 1000 nM
"O=C(NC/C=C/S(=O)(=O)c1ccccc1)c1cc(-c2ccccc2)c[nH]c1=O [Example 12, N-[(2E)-3-(benzenesulfonyl)prop-2-en-1-yl]-2-oxo-5-phenyl-1,2-dihydropyridine-3-carboxamide]",≤ 1000 nM,≤ 10000 nM,≤ 10000 nM
"COc1ccc(S(=O)(=O)/C=C/CNC(=O)c2cc3c([nH]c2=O)CCCC3)cc1F [Example 19, N-[(2E)-3-(3-fluoro-4-methoxybenzenesulfonyl)prop-2-en-1-yl]-2-oxo-1,2,5,6,7,8-hexahydroquinoline-3-carboxamide]",≤ 100 nM,≤ 1000 nM,≤ 1000 nM
"CC(C)(C)OC(=O)N1CCc2[nH]c(=O)c(C(=O)NC/C=C/S(=O)(=O)c3ccccc3F)cc2C1 [Example 22, tert-butyl 3-{[(2E)-3-(2-fluorobenzenesulfonyl)prop-2-en-1-yl]carbamoyl}-2-oxo-1,2,5,6,7,8-hexahydro-1,6-naphthyridine-6-carboxylate]",≤ 100 nM,≤ 1000 nM,≤ 1000 nM
"O=C(NC/C=C/S(=O)(=O)c1ccccc1F)c1cc2c([nH]c1=O)CCCC2 [Example 24, N-[(2E)-3-(2-fluorobenzenesulfonyl)prop-2-en-1-yl]-2-oxo-1,2,5,6,7,8-hexahydroquinoline-3-carboxamide]",≤ 100 nM,≤ 1000 nM,≤ 1000 nM
"CC(C)(C)OC(=O)N1CCc2[nH]c(=O)c(C(=O)NC/C=C/S(=O)(=O)c3ccc(F)cc3)cc2C1 [Example 25, tert-butyl 3-{[(2E)-3-(4-fluorobenzenesulfonyl)prop-2-en-1-yl]carbamoyl}-2-oxo-1,2,5,6,7,8-hexahydro-1,6-naphthyridine-6-carboxylate]",≤ 100 nM,≤ 1000 nM,≤ 10000 nM
"COc1ccc(S(=O)(=O)/C=C/CNC(=O)c2cc3c([nH]c2=O)CCN(C(=O)OC(C)(C)C)C3)cc1F [Example 26, tert-butyl 3-{[(2E)-3-(3-fluoro-4-methoxybenzenesulfonyl)prop-2-en-1-yl]carbamoyl}-2-oxo-1,2,5,6,7,8-hexahydro-1,6-naphthyridine-6-carboxylate]",≤ 100 nM,≤ 1000 nM,≤ 10000 nM
"CC(C)(C)OC(=O)N1CCc2[nH]c(=O)c(C(=O)NC/C=C/S(=O)(=O)c3ccc(Cl)cc3)cc2C1 [Example 27, tert-butyl 3-{[(2E)-3-(4-chlorobenzenesulfonyl)prop-2-en-1-yl]carbamoyl}-2-oxo-1,2,5,6,7,8-hexahydro-1,6-naphthyridine-6-carboxylate]",≤ 100 nM,≤ 1000 nM,≤ 1000 nM
"O=C(NC/C=C/S(=O)(=O)c1ccc(Cl)cc1)c1cc2ccccc2[nH]c1=O [Example 28, N-[(2E)-3-(4-chlorobenzenesulfonyl)prop-2-en-1-yl]-2-oxo-1,2-dihydroquinoline-3-carboxamide]",≤ 100 nM,≤ 1000 nM,≤ 1000 nM
"O=C(NC/C=C/S(=O)(=O)c1ccc(Cl)cc1)c1cc2c([nH]c1=O)CCN(Cc1ccccc1)C2 [Example 29, 6-benzyl-N-[(2E)-3-(4-chlorobenzenesulfonyl)prop-2-en-1-yl]-2-oxo-1,2,5,6,7,8-hexahydro-1,6-naphthyridine-3-carboxamide]",≤ 100 nM,≤ 1000 nM,≤ 1000 nM
"COc1ccc(S(=N)(=O)/C=C/CNC(=O)c2cc3c([nH]c2=O)CCC(C(C)C)C3)cc1F (stereo not drawn) [Example 144, N-[(2E)-3-[(3-fluoro-4-methoxyphenyl)(imino)oxo-λ^6-sulfanyl]prop-2-en-1-yl]-2-oxo-6-(propan-2-yl)-1,2,5,6,7,8-hexahydroquinoline-3-carboxamide]",,≤ 1000 nM,≤ 1000 nM

# Reference: US20260250250A1, “3-(SULPHONYL OR SULFONIMIDOYL)PROP-2-EN-1-YL]-2-OXO-1,2-DIHYDROPYRIDINE-3-CARBOXAMIDE DERIVATIVES” (Flinder Therapeutics B.V., priority 2022, published 2026)
